Assay results reported in PubChem BioAssay (NCI).
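Following 48 hours of exposure in 96-well plates, responses at five concentrations were used to interpolate endpoints linearly. At the GI50, growth is halved. At the TGI there is no net growth.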

How the values were obtained:
Experiment in all cases: NCI-60 cell line screen, 48 h; in the data active = GI50 below about 0.43 µM; inactive = the rest
SNB-78 CNS = system: SNB-78 CNS
SK-MEL-2 melanoma = system: SK-MEL-2 melanoma
SK-MEL-5 melanoma = system: SK-MEL-5 melanoma
SF-539 CNS = system: SF-539 CNS
HOP-62 NSCLC = system: HOP-62 NSCLC
COLO 205 colon = system: COLO 205 colon
KM12 colon = system: KM12 colon
DLD-1 colon = system: DLD-1 colon
OVCAR-3 ovarian = system: OVCAR-3 ovarian
EKVX NSCLC = system: EKVX NSCLC
K-562 leukemia = system: K-562 leukemia
LXFL 529 NSCLC = system: LXFL 529 NSCLC
HOP-92 NSCLC = system: HOP-92 NSCLC
SK-MEL-28 melanoma = system: SK-MEL-28 melanoma
786-0 renal = system: 786-0 renal
OVCAR-8 ovarian = system: OVCAR-8 ovarian
HL-60(TB) leukemia = system: HL-60(TB) leukemia
SK-OV-3 ovarian = system: SK-OV-3 ovarian
CCRF-CEM leukemia = system: CCRF-CEM leukemia
XF 498 CNS = system: XF 498 CNS
KM20L2 colon = system: KM20L2 colon
SR leukemia = system: SR leukemia
CAKI-1 renal = system: CAKI-1 renal
DMS 273 small cell lung = system: DMS 273 small cell lung
OVCAR-4 ovarian = system: OVCAR-4 ovarian
MOLT-4 leukemia = system: MOLT-4 leukemia
IGROV1 ovarian = system: IGROV1 ovarian
A498 renal = system: A498 renal
SNB-75 CNS = system: SNB-75 CNS
NCI-H23 lung = system: NCI-H23 lung
SF-295 CNS = system: SF-295 CNS
HOP-18 NSCLC = system: HOP-18 NSCLC
NCI-H460 lung = system: NCI-H460 lung
HCC-2998 colon = system: HCC-2998 colon
HCT-15 colon = system: HCT-15 colon
UO-31 renal = system: UO-31 renal
TK-10 renal = system: TK-10 renal
RXF 393 renal = system: RXF 393 renal
HT29 colon = system: HT29 colon
UACC-62 melanoma = system: UACC-62 melanoma
SF-268 CNS = system: SF-268 CNS
LOX IMVI melanoma = system: LOX IMVI melanoma
HCT-116 colon = system: HCT-116 colon
MALME-3M melanoma = system: MALME-3M melanoma
U251 CNS = system: U251 CNS
A549 NSCLC = system: A549 NSCLC
NCI-H522 lung = system: NCI-H522 lung
ACHN renal = system: ACHN renal
SW-620 colon = system: SW-620 colon
OVCAR-5 ovarian = system: OVCAR-5 ovarian
UACC-257 melanoma = system: UACC-257 melanoma
SN12C renal = system: SN12C renal
RPMI-8226 leukemia = system: RPMI-8226 leukemia
M14 melanoma = system: M14 melanoma
NCI-H226 lung = system: NCI-H226 lung
SNB-19 CNS = system: SNB-19 CNS

O=C([O-])c1ccc2c(c1)-c1nc-2nc2[n-]c(nc3nc(nc4[n-]c(n1)c1ccc(C(=O)[O-])cc41)-c1ccc(C(=O)[O-])cc1-3)c1ccc(C(=O)[O-])cc21.[Gd+3].[K+]
> 55.2 µM: TGI (COLO 205 colon)
36.1 µM: TGI (DMS 273 small cell lung)
53.9 µM: TGI (SR leukemia)
> 56.8 µM: TGI (K-562 leukemia)
> 71.7 µM: TGI (OVCAR-4 ovarian)
> 54.2 µM: TGI (CCRF-CEM leukemia)
inactive: GI50 (SNB-78 CNS) > 100 µM | GI50 (SK-MEL-2 melanoma) > 100 µM | GI50 (SK-MEL-5 melanoma) > 100 µM | GI50 (SF-539 CNS) > 46.5 µM | GI50 (HOP-62 NSCLC) > 100 µM | GI50 (COLO 205 colon) > 38.9 µM | GI50 (KM12 colon) 19.1 µM | GI50 (DLD-1 colon) > 53.2 µM | GI50 (OVCAR-3 ovarian) > 100 µM | GI50 (EKVX NSCLC) > 100 µM | GI50 (K-562 leukemia) > 38.9 µM | GI50 (LXFL 529 NSCLC) > 57.1 µM | GI50 (HOP-92 NSCLC) > 100 µM | GI50 (SK-MEL-28 melanoma) > 100 µM | GI50 (786-0 renal) 18 µM | GI50 (OVCAR-8 ovarian) > 100 µM | GI50 (HL-60(TB) leukemia) > 38.5 µM | GI50 (SK-OV-3 ovarian) > 100 µM | GI50 (CCRF-CEM leukemia) > 36.5 µM | GI50 (XF 498 CNS) > 100 µM | GI50 (KM20L2 colon) > 58.8 µM | GI50 (SR leukemia) 30.6 µM | GI50 (CAKI-1 renal) > 100 µM | GI50 (DMS 273 small cell lung) 16.6 µM | GI50 (OVCAR-4 ovarian) > 46.7 µM | GI50 (MOLT-4 leukemia) > 49 µM | GI50 (IGROV1 ovarian) > 100 µM | GI50 (A498 renal) > 100 µM | GI50 (SNB-75 CNS) > 100 µM | GI50 (NCI-H23 lung) > 100 µM | GI50 (SF-295 CNS) > 100 µM | GI50 (HOP-18 NSCLC) > 100 µM | GI50 (NCI-H460 lung) > 100 µM | GI50 (HCC-2998 colon) > 100 µM | GI50 (HCT-15 colon) > 42.6 µM | GI50 (UO-31 renal) > 100 µM | GI50 (TK-10 renal) > 100 µM | GI50 (RXF 393 renal) > 100 µM | GI50 (HT29 colon) > 83.1 µM | GI50 (UACC-62 melanoma) 99.7 µM | GI50 (SF-268 CNS) > 64.1 µM | GI50 (LOX IMVI melanoma) 16.6 µM | GI50 (HCT-116 colon) > 40.1 µM | GI50 (MALME-3M melanoma) > 100 µM | GI50 (U251 CNS) > 57 µM | GI50 (A549 NSCLC) > 100 µM | GI50 (NCI-H522 lung) > 100 µM | GI50 (ACHN renal) > 100 µM | GI50 (SW-620 colon) > 22.8 µM | GI50 (OVCAR-5 ovarian) > 100 µM | GI50 (UACC-257 melanoma) > 100 µM | GI50 (SN12C renal) > 72.7 µM | GI50 (RPMI-8226 leukemia) > 47.2 µM | GI50 (M14 melanoma) > 65.1 µM | GI50 (NCI-H226 lung) > 100 µM | GI50 (SNB-19 CNS) > 100 µM
> 69 µM: TGI (SF-539 CNS)
34.6 µM: TGI (KM12 colon)
> 94 µM: TGI (DLD-1 colon)
> 56.6 µM: TGI (HCT-116 colon)
> 100 µM: TGI (SNB-78 CNS) | TGI (SK-MEL-2 melanoma) | TGI (SK-MEL-5 melanoma) | TGI (HOP-62 NSCLC) | TGI (OVCAR-3 ovarian) | TGI (EKVX NSCLC) | TGI (LXFL 529 NSCLC) | TGI (HOP-92 NSCLC) | TGI (SK-MEL-28 melanoma) | TGI (OVCAR-8 ovarian) | TGI (SK-OV-3 ovarian) | TGI (XF 498 CNS) | TGI (KM20L2 colon) | TGI (CAKI-1 renal) | TGI (MOLT-4 leukemia) | TGI (IGROV1 ovarian) | TGI (A498 renal) | TGI (SNB-75 CNS) | TGI (NCI-H23 lung) | TGI (SF-295 CNS) | TGI (HOP-18 NSCLC) | TGI (NCI-H460 lung) | TGI (HCC-2998 colon) | TGI (UO-31 renal) | TGI (TK-10 renal) | TGI (RXF 393 renal) | TGI (HT29 colon) | TGI (UACC-62 melanoma) | TGI (SF-268 CNS) | TGI (MALME-3M melanoma) | TGI (U251 CNS) | TGI (A549 NSCLC) | TGI (NCI-H522 lung) | TGI (ACHN renal) | TGI (OVCAR-5 ovarian) | TGI (UACC-257 melanoma) | TGI (SN12C renal) | TGI (M14 melanoma) | TGI (NCI-H226 lung) | TGI (SNB-19 CNS)
> 66 µM: TGI (RPMI-8226 leukemia)
> 64.3 µM: TGI (HCT-15 colon)
> 54.5 µM: TGI (HL-60(TB) leukemia)
45.7 µM: TGI (LOX IMVI melanoma)
40.9 µM: TGI (786-0 renal)
> 50.9 µM: TGI (SW-620 colon)
